Measurements as given in patent publication US20210000894A1, “Anti-Stress Composition” (MORINAGA MILK INDUSTRY CO., LTD., priority 2018, published 2021).

System: social defeat stress-bearing C57BL/6J mice
Assay: Social defeat stress: escape time (time taken to be bitten 20 times by the male ICR mouse)
Assay type: in vivo
Conditions: for escape time, average value: C57BL/6J mice, L. helveticus as living cells orally once a day
Protocol: In the present experiment, an experiment of causing a small mouse to experience social defeat by allowing the small mouse to be bitten many times by a large mouse was carried out, and an effect of Lactobacillus helveticus on behavioral changes caused by social defeat stress (decrease in escape behavior, a lethargic state) was investigated. In the present experiment, C57BL/6J mice were used as social defeat stress-bearing mice. In a cage of male and female ICR mice cohabiting for three weeks or longer, only the male parent was left. A C57BL/6J mouse was brought into that cage, and the time taken by the C57BL/6J mouse to be bitten 20 times by the male parent mouse (escape time) was measured. As the escape time increases, it is implied that the C57BL/6J mouse attempts to escape from the ICR mouse, and therefore, it was determined that the social defeat stress is reduced. From two days before the beginning of giving social defeat stress until the end of the behavioral test, the experiment was carried out respectively for mice to which milnacipran was administered (Toledomin tablets; manufactured by Janssen Pharmaceutical K.K.) (positive control), mice to which nothing was administered (vehicle control), and mice to which living bacterial cells of Lactobacillus helveticus NITE BP-01671 were orally administered once a day using a sonde needle.

Structure (SMILES): CCN(CC)C(=O)C1(c2ccccc2)CC1CN (stereo not shown) [milnacipran]
- escape time compared to the vehicle control (in words) (C57BL/6J mice under social defeat stress, summary of Table 1): increased significantly compared to the vehicle control
- escape time, average value (Day 1, administered from two days before stress): 24.6 s
- escape time, average value (Day 2): 42.9 s
- escape time, average value (Day 3): 65.9 s
- escape time, average value (Day 4): 63.2 s
- escape time, average value (Day 5): 81.0 s
- escape time, average value (Day 8): 114.8 s
- escape time, average value (Day 9): 159.0 s
- escape time, average value (Day 10): 183.2 s
- escape time, average value (Day 11): 183.9 s
- escape time, average value (Day 12): 143.2 s
- escape time, average value (Day 15): 68.7 s
- escape time, average value (Day 16): 46.9 s
